Target: Prolyl endopeptidase (Sus scrofa, UniProt P23687)
Test: Compound was evaluated for the inhibition of Prolyl endopeptidase (PEP) from pig kidney using Z-Gly-Pro-p-nitroanilide as substrate

Chain of Prolyl endopeptidase (P23687 whole entry): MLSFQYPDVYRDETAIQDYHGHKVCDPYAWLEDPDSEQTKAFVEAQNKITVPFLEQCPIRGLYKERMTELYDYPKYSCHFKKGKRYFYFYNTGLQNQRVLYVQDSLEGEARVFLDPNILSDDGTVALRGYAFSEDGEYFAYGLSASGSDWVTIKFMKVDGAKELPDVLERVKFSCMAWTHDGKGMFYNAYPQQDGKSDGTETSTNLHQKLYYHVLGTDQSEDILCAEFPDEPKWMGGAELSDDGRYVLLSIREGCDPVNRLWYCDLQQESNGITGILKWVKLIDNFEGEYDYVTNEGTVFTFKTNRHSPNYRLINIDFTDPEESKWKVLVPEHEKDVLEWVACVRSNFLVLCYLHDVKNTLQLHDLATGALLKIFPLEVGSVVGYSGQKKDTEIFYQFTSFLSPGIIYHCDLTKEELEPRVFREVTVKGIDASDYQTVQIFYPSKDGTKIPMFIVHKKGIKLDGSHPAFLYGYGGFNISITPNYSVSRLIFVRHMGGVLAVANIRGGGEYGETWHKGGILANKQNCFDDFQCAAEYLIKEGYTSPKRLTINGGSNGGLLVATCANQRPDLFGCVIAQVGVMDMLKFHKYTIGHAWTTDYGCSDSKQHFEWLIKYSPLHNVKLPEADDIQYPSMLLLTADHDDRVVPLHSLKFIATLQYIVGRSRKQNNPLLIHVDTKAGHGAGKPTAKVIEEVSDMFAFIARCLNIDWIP

IC50 | SMILES
5.9 nM | O=C(c1cscn1)[C@@H]1CCCN1C(=O)[C@@H]1CCCN1C(=O)CCCc1ccccc1
9.6 nM | CCOC(=O)C(=O)[C@@H]1CCCN1C(=O)[C@@H]1CCCN1C(=O)CCCc1ccccc1

— ChEMBL document CHEMBL1127716, “-Ketothiazole inhibitors of prolyl endopeptidase” (Bioorg Med Chem Lett, 1994)
